Data: US20050222186A1, “Substituted diaminopyrimidines” (Altana Pharma AG, priority 2002, published 2005)

What was measured:
[1] = target: recombinant human PKC-θ enzyme (Homo sapiens, UniProt Q04759); assay: Protein Kinase C-θ assay (SPA, 33P-ATP phosphorylation of biotinylated substrate peptide); type: biochemical; details: 1 μM ATP, 40 min at room temperature, 1% DMSO, read-out: Inhibition of PKC-θ activity [measured as IC50 (μmol/l)]
Procedure: The compounds of formula 1 were tested for their activity on PKC-θ according to the following method. The assay was performed in 96 well microtiter plates (Perkin Elmer Wallac) at a final assay volume of 200 μl. The reaction mixture (50 μl) contained 10 μl of recombinant human PKC-θ enzyme together with 5 μl of the test compound and 3 μM biotinylated PKC-θ substrate peptide (Biotin-RKRQRSMRRRVHOH), 160 μM phosphatidylserine, 0.3 mg/ml BSA, 1 μM ATP and 2 μCi of ^33γ-ATP (Amersham) in 40 mM Tris-buffer pH 7.4. Incubation was performed for 40 min at room temperature. The reaction was stopped by adding 150 μl of a mixture containing 10 mM ATP and 1.33 mg/ml streptavidin coated yttrium silicate SPA beads (Amersham). Incorporated radioactivity (cpm) was measured for 2 min in a radioactivity counter (Wallac MicroBeta JET). […] IC50 values for inhibition of PKC-θ were calculated from the concentration-inhibition curves by nonlinear-regression.

[2] = tested on: CD4+ T lymphocytes; assay: CD4+ IL-2 secretion assay (ELISA of supernatants); type: cell-based; details: αCD3/αCD28 stimulated CD4+ T lymphocytes, 48 h incubation, IL-2 in supernatants by ELISA; read-out: Inhibition of IL-2 secretion in CD4+ cell [measured as IC50 (μmol/l)]
Procedure: (§1) CD4+ lymphocytes were purified as described by Hatzelmann and Schudt (J Pharmacol Exp Ther 297: 267-279) and resuspended in assay medium (RPMI 1640/10% fetal calf serum (FCS) containing 2 mM Glutamine, 1% sodiumpyruvate, 1% non-essential amino acids and 1% penicillin/streptomycin) at a density of 1×10^6 cells/ml. 96 well plates were coated with αCD3 antibodies (0.3 μg/well; Ortho-clone OKT-3, Jansen-Cilag) for 2.5 h at 37° C. in 5% CO2 and then washed twice with PBS (200 μl/well). Prior to plating of the cells (200 μl, 2×10^5 cells) the compounds of formula 1 dissolved in 2% DMSO were added to the antibody-coated plates at the desired concentrations. Following a preincubation period of 30 min at 37° C. and 5% CO2 10 μl of αCD28 antibody (3 μg/ml, Beckman) were added and incubation continued for 48 h at 37° C. and 5% CO2. 18 h prior to cell harvest 10 μl of ^3H-methylthymidin (0.2 μCi, Amersham) were added. After 48 h total incubation time the cells were lysed using deionized water and radiolabeled DNA was immobilized on 96 well filter plates using a Tomtec device. The plates were dried at 60° C. for 1 h and overlayed with 40 μl Microscint-O (Packard) before counting in a Topcount radioactivity counter (Packard). Calculation of IC50 values was performed as described above.
CD4+ T lymphocytes were stimulated and treated with compounds of formula 1 as described above for the CD4+ proliferation assay. Following a 48 h incubation period IL-2 levels in the supernatants (50 μl/well) were determined by ELISA (Beckman Coulter). Calculation of IC50 values was performed as described above.

[3] = tested on: CD4+ lymphocytes; assay: CD4+ proliferation assay (αCD3/αCD28 stimulation, 3H-methylthymidin incorporation); type: cell-based; details: Lymphocyte, αCD3/αCD28 stimulated CD4+ lymphocytes, 48 h incubation, read-out: Inhibition of CD4+ cell proliferation [measured as IC50 (μmol/l)]
Procedure: as §1

Sequence of recombinant human PKC-θ enzyme (Q04759 whole entry): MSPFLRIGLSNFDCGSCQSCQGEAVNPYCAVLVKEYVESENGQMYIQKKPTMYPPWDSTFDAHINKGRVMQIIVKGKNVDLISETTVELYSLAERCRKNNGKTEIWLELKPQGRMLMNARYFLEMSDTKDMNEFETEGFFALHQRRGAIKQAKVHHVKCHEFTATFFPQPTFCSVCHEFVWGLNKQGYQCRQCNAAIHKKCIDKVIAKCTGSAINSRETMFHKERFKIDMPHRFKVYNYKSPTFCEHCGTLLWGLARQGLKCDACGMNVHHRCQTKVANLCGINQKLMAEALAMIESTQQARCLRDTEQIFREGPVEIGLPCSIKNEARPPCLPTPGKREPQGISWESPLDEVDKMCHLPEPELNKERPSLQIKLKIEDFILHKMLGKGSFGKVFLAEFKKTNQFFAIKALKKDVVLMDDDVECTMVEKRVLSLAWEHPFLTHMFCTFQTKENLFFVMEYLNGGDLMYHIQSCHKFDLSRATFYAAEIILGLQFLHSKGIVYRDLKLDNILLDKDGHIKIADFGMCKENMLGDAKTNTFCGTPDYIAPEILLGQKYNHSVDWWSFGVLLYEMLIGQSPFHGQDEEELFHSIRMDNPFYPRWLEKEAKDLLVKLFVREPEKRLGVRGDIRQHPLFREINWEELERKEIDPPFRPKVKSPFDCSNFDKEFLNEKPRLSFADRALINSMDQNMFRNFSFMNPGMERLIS

## c1ccc(CN2CCC(Nc3nc(NCc4ccccn4)ncc3-c3ccsc3)CC2)cc1 [Example 1, [1-Benzyl(4-piperidyl)]{2-[(2-pyridylmethyl)amino]-5-(3-thienyl)pyrimidin-4-yl}amine]
[1]
  IC50: < 4 µmol/L
[2]
  IC50: < 4 µmol/L
[3]
  IC50: < 4 µmol/L

## NC(=O)c1ccc(-c2cnc(NCc3ccncc3)nc2NC2CCN(Cc3ccccc3)CC2)cc1 [Example 6, {5-(Phenyl-4-carboxamido)-2-[(4-pyridylmethyl)amino)pyrimidin-4-yl}[1-benzyl(4-piperidyl)]-amine]
[2]
  IC50: < 4 µmol/L

## c1ccc(CN2CCC(Nc3nc(NCc4ccncc4)ncc3-c3cccs3)CC2)cc1 [Example 8, {5-(2-Thienyl)-2-[(4-pyridylmethyl)amino)pyrimidin-4-yl}[1-benzyl(4-piperidyl)]amine]
[2]
  IC50: < 4 µmol/L
[3]
  IC50: < 4 µmol/L

## c1ccc(CN2CCC(Nc3nc(NCc4ccccn4)ncc3-c3ccco3)CC2)cc1 [Example 12, {5-(2-Furanyl)-2-[(2-pyridylmethyl)amino)pyrimidin-4-yl}[1-benzyl(4-piperidyl)]amine]
[1]
  IC50: < 4 µmol/L
[2]
  IC50: < 4 µmol/L

## c1ccc(CN2CCC(Nc3nc(NCc4ccccn4)ncc3-c3ccoc3)CC2)cc1 [Example 13, {5-(3-Furanyl)-2-[(2-pyridylmethyl)amino)pyrimidin-4-yl}[1-benzyl(4-piperidyl)]amine]
[1]
  IC50: < 4 µmol/L
[2]
  IC50: < 4 µmol/L

## c1ccc(CN2CCC(Nc3nc(NCc4ccccn4)ncc3-c3cccs3)CC2)cc1 [Example 14, {5-(2-Thienyl)-2-[(2-pyridylmethyl)amino)pyrimidin-4-yl}[1-benzyl(4-piperidyl)]amine]
[1]
  IC50: < 4 µmol/L
[2]
  IC50: < 4 µmol/L
[3]
  IC50: < 4 µmol/L

## NC(=O)c1ccc(-c2cnc(NCc3ccccn3)nc2NC2CCN(Cc3ccccc3)CC2)cc1 [Example 15]
[1]
  IC50: < 4 µmol/L
[2]
  IC50: < 4 µmol/L
[3]
  IC50: < 4 µmol/L

## CC(=O)c1ccc(-c2cnc(NCc3ccccn3)nc2NC2CCN(Cc3ccccc3)CC2)cc1 [Example 21]
[1]
  IC50: < 4 µmol/L

## CC(=O)c1cccc(-c2cnc(NCc3ccccn3)nc2NC2CCN(Cc3ccccc3)CC2)c1 [Example 22, 1-(3-[4-(1-Benzyl-piperidinylamino)-2-[(pyridin-2-ylmethyl)-amino]-pyrimidin-5-yl}phenyl)-ethanone]
[1]
  IC50: < 4 µmol/L
